Measured values reported in ChEMBL document CHEMBL1201862, “PubChem BioAssay data set” (2004).
The source made the active and inactive calls.

Experiments:
[1] = molecular target: T1, DNA repair protein RAD52 homolog (Homo sapiens, UniProt P43351); type: functional, biochemical
T1 sequence (P43351 whole entry): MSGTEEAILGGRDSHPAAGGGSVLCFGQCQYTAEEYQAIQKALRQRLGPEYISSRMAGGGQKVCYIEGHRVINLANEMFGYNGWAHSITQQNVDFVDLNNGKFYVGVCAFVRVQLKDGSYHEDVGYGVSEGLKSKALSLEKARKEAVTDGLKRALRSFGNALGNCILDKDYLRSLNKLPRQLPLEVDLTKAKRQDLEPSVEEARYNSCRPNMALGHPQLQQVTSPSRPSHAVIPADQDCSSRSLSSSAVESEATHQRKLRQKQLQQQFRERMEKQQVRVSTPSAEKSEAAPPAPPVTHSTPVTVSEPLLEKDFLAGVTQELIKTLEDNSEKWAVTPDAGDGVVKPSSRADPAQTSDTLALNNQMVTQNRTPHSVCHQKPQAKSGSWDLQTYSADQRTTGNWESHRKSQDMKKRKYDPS

[2] = inhibitors of intracellular T. cruzi replication, confirmation, NIH3T3 host cells, beta-gal luminescence (AID 2044); type: functional, cell-based;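 also: intracellular parasites grown in NIH/3T3 mouse fibroblasts as host cells; luminescent beta-galactosidase reporter signal from transgenic T. cruzi replicating inside host cells; inhibitors lower the luminescence signal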
[3] = cytotoxicity toward NIH3T3 fibroblasts, dose response, counter-screen, cell-based, ATP luminescence, mouse fibroblasts (AID 2010); type: functional;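 also: cells exposed to compound for about 90 hours before reading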
[4] = molecular target: T2, Polyadenylate-binding protein 1 (Homo sapiens, UniProt P11940); test: PABP1 MLLE–PAM2 interaction inhibitors, dose response, miRNA deadenylation inhibitor project, biochemical, fluorescence polarization, Cy5-PAM2 peptide, secondary (AID 602260); type: functional; details: read-out: IC50_Mean
T2 sequence (P11940 whole entry): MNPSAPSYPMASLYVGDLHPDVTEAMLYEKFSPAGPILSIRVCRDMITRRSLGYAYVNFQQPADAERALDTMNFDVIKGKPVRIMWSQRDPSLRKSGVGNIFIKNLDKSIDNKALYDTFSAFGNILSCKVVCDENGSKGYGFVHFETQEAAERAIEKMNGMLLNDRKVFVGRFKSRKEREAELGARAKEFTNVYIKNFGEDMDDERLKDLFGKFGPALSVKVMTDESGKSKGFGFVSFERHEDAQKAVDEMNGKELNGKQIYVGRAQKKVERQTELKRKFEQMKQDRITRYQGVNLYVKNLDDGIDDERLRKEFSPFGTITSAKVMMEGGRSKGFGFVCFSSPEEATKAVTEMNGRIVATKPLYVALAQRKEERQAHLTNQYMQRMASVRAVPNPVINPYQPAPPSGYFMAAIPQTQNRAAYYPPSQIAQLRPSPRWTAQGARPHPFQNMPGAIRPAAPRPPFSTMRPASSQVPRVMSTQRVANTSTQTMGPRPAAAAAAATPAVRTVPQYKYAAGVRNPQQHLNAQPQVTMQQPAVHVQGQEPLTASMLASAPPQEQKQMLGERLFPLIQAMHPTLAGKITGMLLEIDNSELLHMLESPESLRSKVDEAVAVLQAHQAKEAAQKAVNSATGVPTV

[5] = molecular target: T2, Polyadenylate-binding protein 1; test: PABP1 MLLE–PAM2 binding inhibitor potency, dose response, biochemical, fluorescence polarization, FITC-PAM2 peptide (AID 602259); type: functional; details: read-out: IC50_Mean
[6] = molecular target: T3, High affinity choline transporter 1 (Homo sapiens, UniProt Q9GZV3); test: CHT inhibitors, dose response, cell-based, 5-point CRC, membrane potential dye (AID 504840); type: functional
T3 sequence (Q9GZV3 whole entry): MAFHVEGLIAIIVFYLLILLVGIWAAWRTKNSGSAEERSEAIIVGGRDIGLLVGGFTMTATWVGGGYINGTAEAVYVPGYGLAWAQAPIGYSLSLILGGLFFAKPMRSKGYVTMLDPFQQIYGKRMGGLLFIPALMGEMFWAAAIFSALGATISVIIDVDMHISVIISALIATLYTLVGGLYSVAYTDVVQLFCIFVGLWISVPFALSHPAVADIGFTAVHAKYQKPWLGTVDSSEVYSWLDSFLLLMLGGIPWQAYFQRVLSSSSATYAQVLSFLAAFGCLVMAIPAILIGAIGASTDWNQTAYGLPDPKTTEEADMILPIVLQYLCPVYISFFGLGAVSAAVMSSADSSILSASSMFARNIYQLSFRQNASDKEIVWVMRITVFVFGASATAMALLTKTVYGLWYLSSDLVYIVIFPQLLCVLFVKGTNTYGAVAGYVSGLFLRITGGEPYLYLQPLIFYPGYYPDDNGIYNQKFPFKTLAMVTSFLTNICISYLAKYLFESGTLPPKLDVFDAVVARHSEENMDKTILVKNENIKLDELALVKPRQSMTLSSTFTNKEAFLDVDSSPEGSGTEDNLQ

[7] = molecular target: T4, RNA-binding protein pos-1 (Caenorhabditis elegans, UniProt G5EF15); test: inhibitors of POS-1/mex-3 RNA binding, dose response, biochemical, fluorescence polarization (AID 1964);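 also: purified POS-1 fused to maltose binding protein made in E. coli; potency of compounds blocking POS-1 binding to fluorescent RNA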
T4 sequence (G5EF15 whole entry): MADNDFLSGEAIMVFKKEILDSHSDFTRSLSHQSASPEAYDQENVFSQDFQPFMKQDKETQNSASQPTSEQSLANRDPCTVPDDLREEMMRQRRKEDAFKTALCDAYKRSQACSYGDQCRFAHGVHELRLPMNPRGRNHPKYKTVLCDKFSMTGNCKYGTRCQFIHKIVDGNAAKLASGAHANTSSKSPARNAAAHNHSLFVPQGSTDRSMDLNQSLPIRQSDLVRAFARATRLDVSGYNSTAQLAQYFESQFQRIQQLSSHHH

[8] = molecular target: T5, Zinc finger protein mex-5 (Caenorhabditis elegans, UniProt Q9XUB2); test: MEX-5/TCR-2 RNA interaction inhibitors, dose response, biochemical, C. elegans, fluorescence polarization (AID 1960)
T5 sequence (Q9XUB2 whole entry): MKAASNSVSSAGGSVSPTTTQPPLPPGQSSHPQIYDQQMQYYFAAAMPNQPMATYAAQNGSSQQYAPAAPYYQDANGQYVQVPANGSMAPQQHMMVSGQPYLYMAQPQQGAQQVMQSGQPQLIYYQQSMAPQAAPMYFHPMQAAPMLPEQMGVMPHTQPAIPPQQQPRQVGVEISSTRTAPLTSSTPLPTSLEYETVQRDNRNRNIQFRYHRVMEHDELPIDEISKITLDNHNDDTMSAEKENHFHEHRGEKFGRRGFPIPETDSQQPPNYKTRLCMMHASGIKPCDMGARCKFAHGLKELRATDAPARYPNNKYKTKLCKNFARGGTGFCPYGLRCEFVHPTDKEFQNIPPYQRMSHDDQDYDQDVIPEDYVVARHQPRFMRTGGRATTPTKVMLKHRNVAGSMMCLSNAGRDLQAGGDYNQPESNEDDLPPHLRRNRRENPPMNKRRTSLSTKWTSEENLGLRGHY

Vero = test: cells; type: functional; details: Chlorocebus sabaeus
[9] = molecular target: Induced myeloid leukemia cell differentiation protein Mcl-1 (Homo sapiens, UniProt Q07820); type: functional
Induced myeloid leukemia cell differentiation protein Mcl-1, sequence (Q07820 whole entry): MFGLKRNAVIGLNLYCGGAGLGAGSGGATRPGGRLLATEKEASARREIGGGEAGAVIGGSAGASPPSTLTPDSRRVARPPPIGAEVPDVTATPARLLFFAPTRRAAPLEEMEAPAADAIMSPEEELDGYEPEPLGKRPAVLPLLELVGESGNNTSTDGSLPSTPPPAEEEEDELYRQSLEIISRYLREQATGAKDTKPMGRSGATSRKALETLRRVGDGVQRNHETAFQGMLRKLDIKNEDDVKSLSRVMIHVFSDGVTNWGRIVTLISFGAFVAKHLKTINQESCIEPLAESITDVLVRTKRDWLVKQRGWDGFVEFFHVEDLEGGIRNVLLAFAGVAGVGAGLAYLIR

[10] = molecular target: Luciferin 4-monooxygenase (Photinus pyralis, UniProt P08659); test: firefly luciferase enzyme inhibitors, dose response, biochemical, luminescence (AID 1891)
Luciferin 4-monooxygenase, sequence (P08659 whole entry): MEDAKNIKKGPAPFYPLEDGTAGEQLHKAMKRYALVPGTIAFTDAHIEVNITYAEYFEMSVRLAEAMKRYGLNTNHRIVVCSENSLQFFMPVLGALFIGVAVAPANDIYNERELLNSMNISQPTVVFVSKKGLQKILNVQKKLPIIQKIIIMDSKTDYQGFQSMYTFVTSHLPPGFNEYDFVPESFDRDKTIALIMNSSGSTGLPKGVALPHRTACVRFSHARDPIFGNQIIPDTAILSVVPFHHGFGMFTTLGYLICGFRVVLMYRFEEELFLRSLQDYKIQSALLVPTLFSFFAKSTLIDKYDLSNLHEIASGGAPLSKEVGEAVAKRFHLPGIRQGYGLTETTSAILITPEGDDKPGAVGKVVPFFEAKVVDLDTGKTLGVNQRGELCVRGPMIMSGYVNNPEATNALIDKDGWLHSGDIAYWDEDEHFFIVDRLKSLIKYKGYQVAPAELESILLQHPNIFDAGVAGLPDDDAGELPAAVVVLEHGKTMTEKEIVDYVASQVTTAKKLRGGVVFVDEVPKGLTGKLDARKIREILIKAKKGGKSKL

[11] = Luminescence Cell-Based Dose Confirmation HTS to Identify Inhibitors of Platelet Dense Granule Release. [Related pubchem assays: 1663 (Primary HTS), 1678 (Summary of Project)]; type: functional
[12] = molecular target: T6, Heat shock factor protein 1 (Mus musculus, UniProt P38532); test: inhibition of MG132-induced HSE-luciferase signal, confirmation, cell-based, NIH3T3, luminescence, dose retest (AID 2382); type: functional;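 also: NIH3T3 fibroblasts with HSF1-driven luciferase reporter stressed by proteasome inhibitor MG132; luminescence from HSF1-driven luciferase expression after 8 hours of MG132 stress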
T6 sequence (P38532 whole entry): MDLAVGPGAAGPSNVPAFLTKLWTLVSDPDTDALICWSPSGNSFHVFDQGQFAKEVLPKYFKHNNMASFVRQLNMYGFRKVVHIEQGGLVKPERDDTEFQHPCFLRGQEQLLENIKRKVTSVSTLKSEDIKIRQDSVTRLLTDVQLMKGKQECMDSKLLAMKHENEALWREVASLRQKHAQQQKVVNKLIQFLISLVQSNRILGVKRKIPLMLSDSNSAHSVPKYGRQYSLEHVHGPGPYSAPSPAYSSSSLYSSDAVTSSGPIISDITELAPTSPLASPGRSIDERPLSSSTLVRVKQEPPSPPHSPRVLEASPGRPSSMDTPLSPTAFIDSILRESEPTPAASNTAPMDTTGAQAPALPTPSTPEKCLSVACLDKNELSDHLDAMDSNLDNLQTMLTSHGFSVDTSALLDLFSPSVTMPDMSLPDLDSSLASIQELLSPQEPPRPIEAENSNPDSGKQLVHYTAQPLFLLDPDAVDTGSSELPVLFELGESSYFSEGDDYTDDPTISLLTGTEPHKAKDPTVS

Streptococcus = test: Group A Streptococcus viability loss, dose response, counter-screen for streptokinase expression inhibitor project, luminescence, BacTiterGlo (AID 1915); type: functional, organism-based;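 also: potency for reduction of bacterial viability or growth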
[13] = test system: Streptococcus sp. 'group A'; test: growth inhibition of control SK(-) GAS strain, dose response, counter-screen for streptokinase expression inhibitor project, luminescence, kanamycin, BacTiterGlo, confirmation (AID 1900); type: functional, organism-based
[14] = molecular target: T6, Heat shock factor protein 1; test: HSF1 potentiators in luciferase reporter cells, confirmation, cell-based, NIH3T3, luminescence, dose retest (AID 435004); type: functional;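 also: stress induced by proteasome inhibitor MG132 added 30 min after compound; luciferase reporter driven by HSF1 response element in NIH3T3 cells; actives raise luminescence as potentiators of the MG132 stress response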
cells [15] = type: functional, cell-based
cells [16] = type: functional, cell-based; remark: listed apart in the source
[17] = THP-1 cell cytotoxicity, dose response, cytotoxicity control for non-replicating M. tuberculosis project (AID 489025); type: functional
cells [18] = type: functional
[19] = growth suppression of PTEN-null colon cells, dose response, cell-based, HCT116 PTEN knockout (AID 1047); type: functional;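 also: HCT116 colon tumor cells with PTEN knocked out; cells exposed to compound for 60 hours before readout; potency for loss of cell viability measured by luminescence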
[20] = growth suppression of beta-catenin-knockout colon cells, dose response, cell-based, HCT116, human colon tumor (AID 1045); type: functional;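 also: HCT116 colon tumor cells with beta catenin knocked out; cells exposed to compound for 60 hours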
[21] = molecular target: T7, Carboxy-terminal domain RNA polymerase II polypeptide A small phosphatase 1 (Homo sapiens, UniProt Q9GZU7); test: inhibitors of CTDSP1, concentration-response testing, biochemical assay, absorbance-based, actives from ultra-high-throughput screening (AID 540297); type: functional
T7 sequence (Q9GZU7 whole entry): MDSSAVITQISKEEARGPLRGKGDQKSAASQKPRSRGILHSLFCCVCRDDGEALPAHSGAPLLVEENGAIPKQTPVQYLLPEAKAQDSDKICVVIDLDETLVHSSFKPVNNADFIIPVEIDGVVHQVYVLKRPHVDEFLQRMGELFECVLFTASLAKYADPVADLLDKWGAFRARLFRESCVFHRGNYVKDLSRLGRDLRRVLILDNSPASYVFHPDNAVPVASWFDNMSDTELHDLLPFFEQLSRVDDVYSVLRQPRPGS

## COc1cc2c(cc1OC)CN(c1nc(CN3CCCC3)nc3sc(C)c(C)c13)CC2
[1]
  AC50: 11.5 µM (active)
[2]
  EC50: 278 nM (active)
[3]
  EC50: > 60 µM (not active)

## Cc1ccc(NC(S)=Nc2ccc3[nH]c(O)nc3c2)cc1C
[4]
  IC50: > 66 µM (inactive)
[5]
  IC50: > 66 µM (inactive)
[6]
  IC50: 14.5 µM (active)

## Cc1c(N=C2Nc3cccc4cccc2c34)c(=O)n(-c2ccccc2)n1C
[7]
  EC50: > 300 µM (not active)
[8]
  EC50: > 300 µM (not active)

## Cc1cc2cc(CNC(=O)COc3ccccc3)ccc2n1C
[4]
  IC50: > 66 µM (inactive)
[5]
  IC50: > 66 µM (inactive)

## CCOC(=O)c1ccccc1NC(=O)c1cn(-c2ccc(OC)cc2)c(=O)c2ccccc12
Vero
  CC50: > 25 µM (active)

## O=C(O)CCN1C(=O)/C(=C\c2ccc(-c3nc4ccccc4s3)o2)SC1=S
[9]
  IC50: 1.53 µM (active)

## Cc1cccc(/N=C/c2sc3ccccc3c2O)n1
[10]
  EC50: 1.02 µM (active)
[11]
  EC50: 22.1 µM (active)
[9]
  IC50: 1.57 µM (active)

## CC(C)c1nc(SCC(=O)c2ccc(F)cc2)c2ccccc2n1
[4]
  IC50: > 66 µM (inactive)
[5]
  IC50: > 66 µM (inactive)
[12]
  EC50: > 195 µM (not active)

## COc1ccc(C(=O)NNC(=S)NC(=O)c2ccc(F)cc2)cc1Br
Streptococcus
  EC50: 1.73 µM (active)
[13]
  EC50: 378 nM (active)
Vero
  CC50: > 25 µM (active)

## Cc1ccc(C(=O)Oc2oc(-c3ccccc3)nc2/C=N/c2ccc(N(C)C)cc2)cc1
[7]
  EC50: > 300 µM (not active)
[8]
  EC50: > 300 µM (inconclusive)
[14]
  EC50: 6.88 µM (active)

## COc1ccc(C(=O)NC2(C(F)(F)F)C(=O)N(Cc3ccco3)C3=C2C(=O)CC(C)(C)C3)cc1OC (centres undefined)
[7]
  EC50: > 300 µM (not active)
[8]
  EC50: > 300 µM (not active)

## CCOc1ccc(NC(=O)COc2ccccc2)c([N+](=O)[O-])c1
Cells [15]
  EC50: 11.9 µM (active)
[7]
  EC50: > 300 µM (not active)
[8]
  EC50: > 300 µM (not active)
Cells [16]
  EC50: > 350 µM (not active)

## COc1ccc(C(=O)NCC(=O)N/N=C/c2ccc([N+](=O)[O-])o2)cc1OC
[17]
  CC50: 24 µM (active)
Cells [18]
  IC50: 4.08 µM (active)

## CC(=O)c1ccccc1-c1csc2ncnc(Sc3nnnn3C)c12
Vero
  CC50: > 25 µM (active)

## CN(C)c1ccc(NC(=O)CCCc2ccccc2)cc1
[9]
  IC50: 4.98 µM (not active)

## Cc1cccc(OCC(O)Cn2c(=N)n(CCN3CCCCC3)c3ccccc32)c1 (centres undefined)
[19]
  EC50: 7.39 µM (active)
[20]
  EC50: 6.6 µM (active)
Vero
  CC50: 15 µM (active)

## CSc1nc2c(=S)[nH]c(=S)[nH]c2s1
[4]
  IC50: > 66 µM (inactive)
[5]
  IC50: > 66 µM (inactive)

## O=C(COc1ccc2ccccc2c1)NNC(=O)c1ccc([N+](=O)[O-])cc1
[21]
  IC50: 6.67 µM (active)
[9]
  IC50: 7.07 µM (active)

## Cc1ccc(S(=O)(=O)Nc2ccccc2F)cc1C(=O)NNC(=O)c1csc(N2CCOCC2)n1
[7]
  EC50: 30.8 µM (active)
[8]
  EC50: 23.3 µM (active)

## CN1CCN(S(=O)(=O)c2ccc(NC(=S)NC(=O)C(C)(C)C)cc2)CC1
[4]
  IC50: > 66 µM (inactive)
[5]
  IC50: > 66 µM (inactive)

## CCOC1(OCC)N=C(N)C2(C#N)C(c3ccc(NC(C)=O)cc3)C12C#N (centres undefined)
[7]
  EC50: 155 µM (active)
[8]
  EC50: 79.4 µM (active)

## COc1cc(NC(=O)CSc2nnc3ccc(-c4ccncc4)nn23)cc(OC)c1
[7]
  EC50: > 300 µM (not active)
[8]
  EC50: > 300 µM (not active)
